“Also recorded” adds a separate entry of the source.
Key:
[1] = Serum half-life and bioavailability of 14C-labeled DIME; assay type: in vivo; settings: mice
Procedure: Mice were orally dosed with 126 mg/kg 14C-labeled DIME (Compound 1). After dosing, blood sampling times were 15 and 30 minutes and 1, 2, 4, 6, 8 and 24 hours. Aliquots (50 μL) of blood were assayed in a liquid scintillation counter and data expressed as microgram-equivalents per mL. The blood level data were analyzed by the […] method (Micromath, Salt Lake City, Utah). Parallel groups of mice were dosed intravenously with 24.5 mg/kg 14C-labeled DIME and blood sampling times were 10, 20 and 30 minutes and 1, 2, 4, 6 and 8 hours.

[2] = Toxicity, daily oral dosing in nude mice; assay type: in vivo; settings: daily oral dose 1 g/kg, 12-15 days
Procedure: Ten nude mice were administered a daily oral dose of ^14 C-labeled DIME (Compound 1) (1.0 g/kg, 0.1 mL in corn oil) for a period of 12-15 days.

MDA-MB-231 xenografts = experiment: Inhibition of MDA-MB-231 xenografts in nude mice; assay type: in vivo, human mammary cancer xenograft in nude mice
Source text: The ability of human tumors to grow as xenografts in athymic mice (e.g., nude mice) provides a useful in vivo model for studying the biological response to therapies for human tumors. Since the first successful xenotransplantation of human tumors into athymic mice (Rygaard et al., 1969, Acta Pathol. Microbial. Scand. 77:758-760), many different human tumor cell lines (e.g., mammary, lung, genitourinary, gastrointestinal, head and neck, glioblastoma, bone and malignant melanomas) have been successfully transplanted and grown into nude mice. Human mammary tumor cell lines, including MCF-7, ZR75-1 and MDA-MB-231, have been established as subcutaneous grafts in nude mice (Warri et al., 1991, Intl. J. Cancer 49:616-23; Ozzello et al., 1980, Eur. J. Cancer 16:553-559; Osbourne et al., 1985, Cancer Res. 45:584-590; Siebert et al., 1983, Cancer Res. 43:2223-2239).
MDA-MB-231 (human mammary cancer) cells were obtained from American Type Culture Collection (Rockville, Md.) and maintained in the recommended growth media. Twenty nude mice were each inoculated subcutaneously with MDA-MB-231 cells (10^6 cells/[…]). To one group often mice, DIME was administered by gavage (250 mg/kg, 10 mL/kg in corn oil) once […] per day, 5 days per week, for a total of 32 days. The other (control) group of ten mice was given administered vehicle only according to the same dosing schedule. Tumors were measured twice weekly using a Vernier caliper, and the mean tumor volume was determined at each time point. Comparisons between groups were made using an unpaired, two-tailed t-test and the results were analyzed using analysis of variance.

human cancer cells = experiment: Cytostatic / cytocidal activity of DIME analogues on human cancer cells; assay type: cell-based
Source text: Such tests may also screen for the ability of a particular compound to inhibit malignant tumor cell growth in vitro or in vivo or abolish tumorigenicity of malignant cells.
As will be appreciated by the skilled artisan, many varieties of malignant tumor cell cultures and cell lines may be used to screen for activity, including but not limited to HL-60, HT-144, E-ras-20, DU-145, MDA-168, MCF-7, 855-2 and MDA-MB-231. Of course, other in vitro and/or in vivo assays as will be apparent to the skilled artisan to screen for anti-tumor and/or anti-cancer activity may also be employed to identify effective diiodo thyronine analogues useful in the present invention.

thyroid = settings: rats; as compared to thyroxine; cited from earlier work
[3] = test system: DIME-tolerant clones DR6 and DR7; experiment: Colony formation of DIME-tolerant clones; assay type: cell-based, human; settings: concentrations that reduce colony formation by 10^3 in parent line
Source text: e. Colony formation was quantitated as reported by. Each colony of 50 cells is the outgrowth from one cell, plated 10 days before colony counting.

tumor cells = experiment: Tumor cell apoptosis and micronucleation; assay type: cell-based
caspase 3 = experiment: Caspase 3 assay in drug-treated cells; assay type: cell-based, human; settings: 0.75 μM DIME or 2 nM vincristine alone, 3 days
Procedure: g. Caspase 3 assay. MDA 231 cells were grown for 3 days in the absence of drugs (control) or in the presence of 0.75 μM DIME, or in the presence of 2 nM vincristine, or in the presence of both drugs. After harvesting and washing the cells with PBS, they were lysed in a lysis buffer (10 mM HEPES, 5 mM DTT, 2 mM EDTA, 1 mM PMSF, 0.1% CHAPS, 20 μg/ml each of aprotinin, leupeptin, pepstatin, pH 7.4), and were frozen and thawed 3 times. […] Each cell extract was incubated at room temperature with and without preincubation with the caspase inactivator DEVD-CMK. The difference of fluorescence was plotted against time. The fluorescence was calibrated with the fluorophore AFC.

tubulin α+β = experiment: Inhibition of tubulin polymerization / assembly of microtubules; assay type: biochemical; settings: FIG. 4b
Procedure: The optical tests were performed as reported by Buki et al., International Journal of Oncology 10:911-913 (1997).

[4] = test system: non-malignant mouse pituitary adenoma; settings: in vivo; cited from earlier work
nontumorigenic cells = experiment: DIME uptake / permeation in nontumor cells; assay type: cell-based; settings: versus malignant counterparts

SMILES: COC(=O)c1cc(I)c(Oc2ccc(OC)cc2)c(I)c1 [DIME, methyl 3,5-diiodo-4-(4'-methoxyphenoxy) benzoate]
- half-life (t1/2) in serum [1]: 2 to 2.5 h
- Ill effects [2]: remarkably nontoxic; also recorded: No ill effects were observed
- Growth of mammary cancer xenografts (MDA-MB-231) (MDA-MB-231 xenografts; 250 mg/kg by gavage once daily, 5 days a week for 32 days, nude mice): significant reduction of malignant tumor growth
- MDA-MB-231 tumor volume, Day 14 ± SEM (MDA-MB-231 xenografts; DIME 250 mg/kg by gavage, 5 days per week, 32 days, control 284.6 ± 42.0, p = 0.06, in mm³ (unit assumed)): 172.0 ± 34.3
- MDA-MB-231 tumor volume, Day 21 ± SEM (MDA-MB-231 xenografts; DIME 250 mg/kg by gavage, control 622.2 ± 58.1, p = 0.02, in mm³ (unit assumed)): 285.7 ± 62.4
- MDA-MB-231 tumor volume, Day 32 ± SEM (MDA-MB-231 xenografts; DIME 250 mg/kg by gavage, control 1176.6 ± 222.4, p = 0.01, in mm³ (unit assumed)): 543.8
- % decrease (tumor volume), Day 14 (MDA-MB-231 xenografts; DIME 250 mg/kg vs control): 40%
- % decrease (tumor volume), Day 21 (MDA-MB-231 xenografts; DIME 250 mg/kg vs control): 54%
- % decrease (tumor volume), Day 28 (MDA-MB-231 xenografts; DIME 250 mg/kg vs control): 56%
- % decrease (tumor volume), Day 32 (MDA-MB-231 xenografts; DIME 250 mg/kg vs control): 54%
- Cytostatic and cytocidal activity in cellular assays (human cancer cells): highly active
- Growth of malignant cell types (human cancer cells): inhibit the growth of a variety of malignant cell types
- Inhibition of uptake of iodine into the thyroid (thyroid): 15%
- Inhibition of colony formation of DR6 and DR7 clones [3]: only marginal inhibition of colony formation
- Tumor cell apoptosis / micronucleation (tumor cells): induce tumor cell apoptosis preceded by micronucleation
- Activation of caspase 3, single drug (caspase 3): small rate of caspase 3 activity
- Inhibition of assembly of microtubules, DIME versus DIPE (tubulin α+β): equivalency; also recorded: Inhibitory effects
- Growth of non-malignant mouse pituitary tumor [4]: no inhibitory activity
- DIME uptake / permeability of nontumor cells (nontumorigenic cells): impermeable to DIME; also recorded: take up significantly less DIME
